According to patent US8124624B2, “Substituted sulfonamide compounds” (Gruenenthal GmbH, priority 2008, dated 2012):
Like-named read-outs stand apart in the source and are kept apart here.

Tests used:
[1] = target: T1, human B1R (Homo sapiens, UniProt P46663); assay: FLIPR Ca2+ influx assay, B1R antagonism, human (hB1R CHO K1 cells); format: cell-based
T1 construct: expressed in transfected cells; host or cells: CHO K1 cells (hB1R cells)
T1 sequence (P46663 1-353): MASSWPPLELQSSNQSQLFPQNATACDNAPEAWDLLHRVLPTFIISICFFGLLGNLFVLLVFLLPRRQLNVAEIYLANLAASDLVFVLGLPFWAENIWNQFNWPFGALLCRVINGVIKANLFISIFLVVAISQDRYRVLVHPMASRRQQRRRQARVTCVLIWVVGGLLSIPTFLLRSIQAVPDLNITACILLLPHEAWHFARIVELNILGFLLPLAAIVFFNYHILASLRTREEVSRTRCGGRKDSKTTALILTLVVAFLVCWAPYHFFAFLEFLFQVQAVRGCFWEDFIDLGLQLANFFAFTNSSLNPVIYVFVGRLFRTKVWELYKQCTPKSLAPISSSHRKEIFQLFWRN
Protocol: (§1) The agonistic or antagonistic action of substances can be quantified on the bradykinin receptor 1 (B1R) of the species human and rat using ectopically expressing cell lines (CHO K1 cells) and with the aid of a Ca^2+-sensitive dye (Fluo-4) using a fluorescent imaging plate reader (FLIPR). The indication in % activation is based on the Ca^2+ signal after addition of Lys-Des-Arg^9-bradykinin (0.5 nM) or Des-Arg^9-bradykinin (100 nM). Antagonists lead to suppression of the Ca^2+ influx after the addition of the agonist. % Inhibition compared with the maximum achievable inhibition is indicated.
(§2) The agonistic or antagonistic action of substances can be determined on the bradykinin receptor 1 (B1R) of the species human and rat using the following assay. According to this assay, the Ca^2+ influx through the channel is quantified with the aid of a Ca^2+-sensitive dye (Fluo-4 type, Molecular Probes Europe BV, Leiden, Netherlands) using a Fluorescent Imaging Plate Reader (FLIPR, Molecular Devices, Sunnyvale, USA).
(§3) Chinese hamster ovary cells (CHO K1 cells) which have been stably transfected with the human B1R gene (hB1R cells) or with the B1R gene of the rat (rB1R cells) are used. For functional studies, the cells are plated out on black 96-well plates having a clear base (BD Biosciences, Heidelberg, Germany or Greiner, Frickenhausen, Germany) in a density of 20,000-35,000 cells/well. The cells are incubated overnight at 37° C. and with 5% CO2 in culture medium (hB1R cells: Nutrient Mixture Ham's F12, Gibco Invitrogen GmbH, Karlsruhe, Germany or DMEM, Sigma-Aldrich, Taufkirchen, Germany; rB1R cells: D-MEM/F12, Gibco Invitrogen GmbH, Karlsruhe, Germany), with 10 vol. % FBS (fetal bovine serum, Gibco Invitrogen GmbH, Karlsruhe, Germany or PAN Biotech GmbH, Aidenbach, Germany).
(§4) On the following day, the cells are loaded for 60 minutes at 37° C. with 2.13 μM Fluo-4 (Molecular Probes Europe BV, Leiden, Netherlands) in HBSS buffer (Hank's buffered saline solution, Gibco Invitrogen GmbH, Karlsruhe, Germany) […] (Sigma-Aldrich, Taufkirchen, Germany) and 10 mM HEPES (Sigma-Aldrich, Taufkirchen, Germany). The plates are then washed twice with HBSS buffer, and HBSS buffer additionally containing 0.1% BSA (bovine serum albumin; Sigma-Aldrich, Taufkirchen, Germany), 5.6 mM glucose and 0.05% gelatin (Merck KGaA, Darmstadt, Germany) is added to the plates. After incubation for a further 20 minutes at room temperature, the plates are inserted into the FLIPR for Ca^2+ measurement.
(§5) Alternatively, washing is carried out with buffer A (15 mM HEPES, 80 mM NaCl, 5 mM KCl, 1.2 mM CaCl2, 0.7 mM MgSO4, 2 g/l glucose, 2.5 mM probenecid) followed by loading with buffer A with added 2.5 μM Fluo-4 and 0.025% Pluronic F127 (Sigma-Aldrich, Taufkirchen, Germany). The cells are then washed twice with buffer A and incubated for 30 minutes at room temperature with buffer A additionally containing 0.05% BSA and 0.05% gelatin and are then inserted into the FLIPR for Ca^2+ measurement.
(§6) The Ca^2+-dependent fluorescence is measured before and after the addition of substances (λex=488 nm, λem=540 nm). Quantification is carried out by measuring the highest fluorescence intensity (FC, fluorescence counts) over time.
(§7) The FLIPR protocol consists of two substance additions. Test substances (10 μM) are first pipetted onto the cells and the Ca^2+ influx is compared with the control (hB1R: Lys-Des-Arg^9-bradykinin >=50 nM; rB1R: Des-Arg^9-bradykinin 10 μM). This gives the activation in %, based on the Ca^2+ signal after addition of Lys-Des-Arg^9-bradykinin (>=50 nM) or Des-Arg^9-bradykinin (10 μM). After 10-20 minutes' incubation, Lys-Des-Arg^9-bradykinin (hB1R) or Des-Arg^9-bradykinin (rB1R) is applied in the concentration of the EC80, and the influx of Ca^2+ is likewise determined. Antagonists lead to suppression of the Ca^2+ influx. The % inhibition compared with the maximum achievable inhibition is calculated. […]

[2] = target: T2, B1R of the rat (Rattus norvegicus, UniProt P97583); assay: FLIPR Ca2+ influx assay, B1R antagonism, rat (rB1R CHO K1 cells); format: cell-based
T2 construct: expressed in transfected cells; host or cells: CHO K1 cells (rB1R cells)
T2 sequence (P97583 1-337): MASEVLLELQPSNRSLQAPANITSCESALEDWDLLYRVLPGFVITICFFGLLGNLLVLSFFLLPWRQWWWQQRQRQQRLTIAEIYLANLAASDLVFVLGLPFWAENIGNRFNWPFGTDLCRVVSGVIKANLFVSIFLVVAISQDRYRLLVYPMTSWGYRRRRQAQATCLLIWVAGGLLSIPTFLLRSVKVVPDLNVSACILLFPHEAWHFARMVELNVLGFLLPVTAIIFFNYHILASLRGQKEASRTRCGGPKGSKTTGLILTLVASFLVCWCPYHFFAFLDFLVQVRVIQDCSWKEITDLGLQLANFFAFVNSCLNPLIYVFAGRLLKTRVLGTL
Protocol: as §1, §2, §3, §4, §5, §6, §7

[3] = CHO-K1, read-out: B1R antagonism, human [10 μM] % inhibition
[4] = CHO-K1, read-out: B1R antagonism, rat [10 μM] % inhibition
[5] = test substance 10 μM, CHO K1 cells stably transfected with human B1R, agonist Lys-Des-Arg9-bradykinin at EC80, % inhibition compared with maximum achievable inhibition, read-out: B1R antagonism, human [10 μM] % inhibition
[6] = test substance 10 μM, CHO K1 cells stably transfected with rat B1R, agonist Des-Arg9-bradykinin at EC80, % inhibition compared with maximum achievable inhibition, read-out: B1R antagonism, rat [10 μM] % inhibition

inhibition at 10 µM [1, 5] | inhibition at 10 µM [2, 6] | Structure (SMILES) | inhibition at 10 µM [1, 3] | inhibition at 10 µM [2, 4]
101% | 61% | Cc1cc(S(=O)(=O)N2CCCCC2CCC(=O)N2CCC(CCN3CCCC3)(c3cccnc3)CC2)c(C)cc1Cl (stereo not drawn) [Example 5, 3-(1-(4-Chloro-2,5-dimethylphenylsulfonyl)piperidin-2-yl)-1-(4-(pyridin-3-yl)-4-(2-(pyrrolidin-1-yl)ethyl)piperidin-1-yl)propan-1-one] |  | 
104% | 102% | COc1cc(C)c(S(=O)(=O)N2CCCCC2COCC(=O)N2CCC(CCN(C)C)(c3cccnc3)CC2)c(C)c1 (stereo not drawn) [Example 8, 1-(4-(2-(Dimethylamino)ethyl)-4-(pyridin-3-yl)piperidin-1-yl)-2-((1-(4-methoxy-2,6-dimethylphenylsulfonyl)piperidin-2-yl)methoxy)ethanone] |  | 
104% | 102% | COc1cc(C)c(S(=O)(=O)N(C)CCOCC(=O)N2CCC(CCN(C)C)(c3cccnc3)CC2)c(C)c1 [Example 9, N-(2-(2-(4-(2-(Dimethylamino)ethyl)-4-(pyridin-3-yl)piperidin-1-yl)-2-oxoethoxy)ethyl)-4-methoxy-N,2,6-trimethylbenzenesulfonamide] |  | 
103% | 65% | CN(C)CCC1(c2cccnc2)CCN(C(=O)CC2CCCCN2S(=O)(=O)c2cccc(C(F)(F)F)c2)CC1 (stereo not drawn) [Example 10, 1-(4-(2-(Dimethylamino)ethyl)-4-(pyridin-3-yl)piperidin-1-yl)-2-(1-(3-(trifluoromethyl)phenylsulfonyl)piperidin-2-yl)ethanone] |  | 
102% | 101% | Cc1cc(S(=O)(=O)N2CCCCC2CCC(=O)N2CCC(CCN(C)C)(c3cccnc3)CC2)c(C)cc1Cl (stereo not drawn) [Example 11, 3-(1-(4-Chloro-2,5-dimethylphenylsulfonyl)piperidin-2-yl)-1-(4-(2-(dimethylamino)ethyl)-4-(pyridin-3-yl)piperidin-1-yl)propan-1-one] |  | 
97% | 101% | COc1cc(C)c(S(=O)(=O)N(C)CCOCC(=O)N2CCC(CCCN3CCCC3)(c3cccnc3)CC2)c(C)c1 [Example 13, 4-Methoxy-N,2,6-trimethyl-N-(2-(2-oxo-2-(4-(pyridin-3-yl)-4-(3-(pyrrolidin-1-yl)propyl)piperidin-1-yl)ethoxy)ethyl)benzenesulfonamide] |  | 
97% | 102% | COc1cc(C)c(S(=O)(=O)N2CCCCC2COCC(=O)N2CCC(CCCN3CCCC3)(c3cccnc3)CC2)c(C)c1 (stereo not drawn) [Example 16, 2-((1-(4-Methoxy-2,6-dimethylphenylsulfonyl)piperidin-2-yl)methoxy)-1-(4-(pyridin-3-yl)-4-(3-(pyrrolidin-1-yl)propyl)piperidin-1-yl)ethanone] |  | 

The next lines start with the molecule.

Structure (SMILES) | inhibition at 10 µM [1, 5] | inhibition at 10 µM [2, 6] | inhibition at 10 µM [1, 3] | inhibition at 10 µM [2, 4]
COc1cc(C)c(S(=O)(=O)N(C)CCOCC(=O)N2CCC(CCN3CCCC3)(c3cccnc3)CC2)c(C)c1 [Example 3, 4-Methoxy-N,2,6-trimethyl-N-(2-(2-oxo-2-(4-(pyridin-3-yl)-4-(2-(pyrrolidin-1-yl)ethyl)piperidin-1-yl)ethoxy)ethyl)benzenesulfonamide] |  |  | 103% | 101%
O=C(CC1CCCCN1S(=O)(=O)c1cccc(C(F)(F)F)c1)N1CCC(CCN2CCCC2)(c2cccnc2)CC1 (stereo not drawn) [Example 4, 1-(4-(Pyridin-3-yl)-4-(2-(pyrrolidin-1-yl)ethyl)piperidin-1-yl)-2-(1-(3-(trifluoromethyl)phenylsulfonyl)piperidin-2-yl)ethanone] |  |  | 103% | 102%
O=C(COCC1CCc2ccccc2N1S(=O)(=O)c1ccc(Cl)c(Cl)c1)N1CCC(CCN2CCCC2)(c2cccnc2)CC1 (stereo not drawn) [Example 6, 2-((1-(3,4-Dichlorophenylsulfonyl)-1,2,3,4-tetrahydroquinolin-2-yl)methoxy)-1-(4-(pyridin-3-yl)-4-(2-(pyrrolidin-1-yl)ethyl)piperidin-1-yl)ethanone] | 100% | 85% |  | 
CN(C)CCC1(c2cccnc2)CCN(C(=O)CC(NS(=O)(=O)c2ccc3ccccc3c2)c2ccccc2)CC1 (stereo not drawn) [Example 7, N-(3-(4-(2-(Dimethylamino)ethyl)-4-(pyridin-3-yl)piperidin-1-yl)-3-oxo-1-phenylpropyl)naphthalene-2-sulfonamide] | 89% | 37% |  | 
CN(C)CCC1(c2cccnc2)CCN(C(=O)COCC2CCc3ccccc3N2S(=O)(=O)c2ccc(Cl)c(Cl)c2)CC1 (stereo not drawn) [Example 12, 2-((1-(3,4-Dichlorophenylsulfonyl)-1,2,3,4-tetrahydroquinolin-2-yl)methoxy)-1-(4-(2-(dimethylamino)ethyl)-4-(pyridin-3-yl)piperidin-1-yl)ethanone] | 103% | 90% |  | 
O=C(CC1CCCCN1S(=O)(=O)c1cccc(C(F)(F)F)c1)N1CCC(CCCN2CCCC2)(c2cccnc2)CC1 (stereo not drawn) [Example 14, 1-(4-(Pyridin-3-yl)-4-(3-(pyrrolidin-1-yl)propyl)piperidin-1-yl)-2-(1-(3-(trifluoromethyl)phenylsulfonyl)piperidin-2-yl)ethanone] | 35% | 64% |  | 
Cc1cc(S(=O)(=O)N2CCCCC2CCC(=O)N2CCC(CCCN3CCCC3)(c3cccnc3)CC2)c(C)cc1Cl (stereo not drawn) [Example 15, 3-(1-(4-Chloro-2,5-dimethylphenylsulfonyl)piperidin-2-yl)-1-(4-(pyridin-3-yl)-4-(3-(pyrrolidin-1-yl)propyl)piperidin-1-yl)propan-1-one] | 84% | 76% |  | 
O=C(CC(NS(=O)(=O)c1ccc2ccccc2c1)c1ccccc1)N1CCC(CCCN2CCCC2)(c2cccnc2)CC1 (stereo not drawn) [Example 17, N-(3-Oxo-1-phenyl-3-(4-(pyridin-3-yl)-4-(3-(pyrrolidin-1-yl)propyl)piperidin-1-yl)propyl)naphthalene-2-sulfonamide] | 94% | 81% |  | 
